According to article PMC12469269, “Investigating SMR Peptide Interactions with Breast Cancer-Associated Proteins” (International Journal of Molecular Sciences, 2025):
Where no end group is shown, it is not given here.

How the values were obtained:
Jurkat T cells = assay: exNef secretion, Mortalin scanning peptides (Figure 5A), Jurkat T cells; type: cell-based; details: 50 ng / 200 μL peptide, 250 ng Nef-GFP plasmid, 48 h, GFP fluorescence in media; SMRmut = 100; mean of three independent experiments
Experimental: To determine whether Mortalin-derived peptides can inhibit the secretion of extracellular Nef (exNef), Jurkat T cells were co-transfected with wild-type Nef-GFP and various scanning peptides derived from the substrate-binding domain of Mortalin (#56–#67). SMRwt and SMRmut peptides were included as positive and negative controls, respectively. After 48 h of incubation, GFP fluorescence in the culture media was measured as a proxy for exNef secretion.
(§1) Figure 5 Effects of Mortalin-derived peptides on inhibition of exNef and tumor exosome secretion. (A) Jurkat T cells were co-transfected with 250 ng of wild-type Nef-GFP plasmid and 50 ng of Mortalin-derived scanning peptides (#56–#67), including SMRwt and SMRmut as positive and negative controls. After 48 h, GFP fluorescence in culture media was measured to assess exNef secretion. Data represent mean ± SD from three independent experiments. Statistical significance was determined using a two-sample t-test assuming equal variances. (B) MDA-MB-231 cells were transfected with 50 ng of Mortalin-derived scanning peptides (#56–#67), including SMRwt and SMRmut controls. Cells were labeled with N-Rh-PE and incubated for 48 h. N-Rh-PE fluorescence in culture media was measured to assess exosome secretion. Data represent mean ± SD from three independent experiments. Statistical significance was determined using a two-sample t-test assuming equal variances. TEXT PRINTED IN THE PICTURE: (A) #56: Jurkat GFP (%): 117.84 (50 ng / 200 μL) | (A) #57: Jurkat GFP (%): 96.69 (50 ng / 200 μL) | (A) #58: Jurkat GFP (%): 91.89 (50 ng / 200 μL) | (A) #59: Jurkat GFP (%): 95.49 (50 ng / 200 μL) | (A) #60: Jurkat GFP (%): 98.25 (50 ng / 200 μL) | (A) #61: Jurkat GFP (%): 0.65 (50 ng / 200 μL) | (A) #62: Jurkat GFP (%): 0.51 (50 ng / 200 μL) | (A) #63: Jurkat GFP (%): 98.02 (50 ng / 200 μL) | (A) #64: Jurkat GFP (%): 95.37 (50 ng / 200 μL) | (A) #65: Jurkat GFP (%): 96.34 (50 ng / 200 μL) | (A) #66: Jurkat GFP (%): 92.28 (50 ng / 200 μL) | (A) #67: Jurkat GFP (%): 99.56 (50 ng / 200 μL) | (A) SMRwt: Jurkat GFP (%): 0.51 (50 ng / 200 μL) | (A) SMRmut: Jurkat GFP (%): 100 (50 ng / 200 μL) | (B) #56: MDA-MB-231 N-Rh-PE (%): 66.31 (50 ng / 200 μL) | (B) #57: MDA-MB-231 N-Rh-PE (%): 79.73 (50 ng / 200 μL) | (B) #58: MDA-MB-231 N-Rh-PE (%): 68.11 (50 ng / 200 μL) | (B) #59: MDA-MB-231 N-Rh-PE (%): 67.81 (50 ng / 200 μL) | (B) #60: MDA-MB-231 N-Rh-PE (%): 72.32 (50 ng / 200 μL) | (B) #61: MDA-MB-231 N-Rh-PE (%): 7.53 (50 ng / 200 μL) | (B) #62: MDA-MB-231 N-Rh-PE (%): 5.36 (50 ng / 200 μL) | (B) #63: MDA-MB-231 N-Rh-PE (%): 75.39 (50 ng / 200 μL) | (B) #64: MDA-MB-231 N-Rh-PE (%): 73.49 (50 ng / 200 μL) | (B) #65: MDA-MB-231 N-Rh-PE (%): 81.65 (50 ng / 200 μL) | (B) #66: MDA-MB-231 N-Rh-PE (%): 81.79 (50 ng / 200 μL) | (B) #67: MDA-MB-231 N-Rh-PE (%): 89.82 (50 ng / 200 μL) | (B) SMRwt: MDA-MB-231 N-Rh-PE (%): 6.11 (50 ng / 200 μL) | (B) SMRmut: MDA-MB-231 N-Rh-PE (%): 100 (50 ng / 200 μL)
To identify peptide sequences within Mortalin that modulate extracellular vesicle (EV) secretion, a panel of scanning peptides was synthesized and tested in Jurkat T cells. The peptides, listed in Table 1, were custom-synthesized with an average purity of 75% and used in transfection assays to evaluate their impact on EV release. Jurkat T cells (3 × 10^5) were co-transfected with 50 ng of individual Mortalin peptides […] 250 ng of wild-type Nef-GFP plasmid using Chariot™ transfection reagent. Transfection efficiency was confirmed by fluorescence microscopy after 48 h. EV secretion was assessed by measuring GFP fluorescence in the culture media, and statistical analysis was performed using unpaired two-factor t-tests (p < 0.05). Panel of Mortalin scanning peptides developed and tested for their effect EV secretion and Table S2. Mortalin Scanning Peptides Used in Transfection Assays, see the Supplementary Information. […]

MDA-MB-231 cells = assay: Tumor exosome secretion, Mortalin scanning peptides (Figure 5B), MDA-MB-231; type: cell-based, human; details: 50 ng / 200 μL peptide, transfected, 48 h, N-Rh-PE fluorescence in media; SMRmut = 100; mean of three independent experiments
Experimental: as §1
To assess the effect of Mortalin-derived peptides on tumor exosome secretion, MDA-MB-231 breast cancer cells were transfected with the same panel of scanning peptides and labeled with N-Rh-PE to track exosome release. Following incubation, N-Rh-PE fluorescence in the culture media was measured as a proxy for extracellular exosome levels. SMRwt and SMRmut peptides were again used as controls. […] Statistical analysis confirmed significant differences: SMRmut vs. #61 (p < 7.20 × 10^−7), SMRmut vs. #62 (p < 5.70 × 10^−7), and SMRmut vs. SMRwt (p < 5.96 × 10^−7).

Nef protein = Nef protein (Human immunodeficiency virus type 1 group M subtype B, UniProt P03404); assay: SPR binding of Mortalin peptides to immobilized Nef; design: species or system HIV-1; details: for kon: pH 7.4, read-out: ka (Nef)
Experimental: Figure 8 depicts the SPR results for Mortalin peptides binding to Nef. The Nef protein was immobilized as a ligand on the chip surface, and the peptides were used as analytes to flow into the buffer solution.
(§2) SPR experiments were conducted using a Biacore T200 instrument (Cytiva, Marlborough, MA, USA). CM5 sensor chips (Cytiva) were used to immobilize proteins and run subsequent binding assays at 25 °C. To investigate the direct binding of Nef and SMR peptides to Vimentin and Mortalin and SMR competition studies, both proteins were immobilized as ligands on the active flow cells (FCs) using standard amine coupling chemistry. One reference FC was prepared using the same surface chemistry, and no proteins were immobilized onto this reference FC. Vimentin was immobilized to a level of ~2500 RU to 7200 RU in the presence of 4 mM of HCl and Mortalin to a level of ~11,900 RU to 13,200 RU in the presence of 10 mM of sodium acetate buffer at pH 4.5. Analytes were then injected (Nef, SMR peptides, Mortalin peptides, and mixtures of […]). One 20 s pulse of 1:500 H3PO4 (H3PO4:ddH2O) was injected for surface regeneration. To investigate the direct binding of Mortalin peptides to Nef, Nef was immobilized as a ligand to ~450 RU using thiol coupling chemistry. A reference FC was created using a method similar to the one above. Mortalin peptides were then injected as analytes. One 20 s pulse of 1 M NaCl was injected for surface regeneration. HBS-P (10 mM Hepes, pH 7.4; 150 mM NaCl; 0.05% surfactant P20) was used as the immobilization running buffer during the immobilization of all ligands. HBS-P was also used to dilute analytes and as a running buffer during all analyte–ligand binding assays. SPR data used for analysis was both blank (signals due to HBS-P only) and reference-subtracted (signals corresponding to reference FCs). Sensorgrams recorded for kinetics analyses were fitted to a 1:1 binding model using the Biacore T200 evaluation software version 3.2.1. GraphPad Prism version 10.4.0 was used to plot all graphs.

MDA-MB-231 BC cells = assay: Exosome secretion by N-Rh-PE (Figure 4A), MDA-MB-231; type: cell-based, human; details: 100 ng/mL peptide, 24 h, no transfection, N-Rh-PE fluorescence, three independent experiments
Experimental: (§3) Figure 4 Effects of SMR, Mortalin, and Vimentin peptides on tumor cell exosome secretion in MDA-MB-231 and MCF-7 breast cancer cells. MDA-MB-231 and MCF-7 BC cells (200 µL, 1 × 10^4 cells/mL) were seeded into a 96-well plate and treated with 100 ng/mL of either wild-type (wt) or mutant (mut) peptides of SMR, Mortalin, or Vimentin. Treatments were performed in RPMI-1640 medium without transfection, and cells were incubated at 37 °C for 24 h. The cells were then treated with 0.5 µM/mL of N-Rh-PE, incubated at 4 °C for 1 h, and washed with PBS. Fresh medium was also added. The cultures were incubated at 37 °C for an additional 24 h. N-Rh-PE refers to N-(Lissamine Rhodamine B sulfonyl) phosphatidyl-ethanolamine, a fluorescent lipid dye commonly used to label membranes and track vesicle trafficking. […] Exosome secretion was assessed by measuring the amount of N-Rh-PE, which corresponds to the number of exosomes released into the extracellular medium. Bar graphs show the relative exosome release level. Data represent the mean ± SD of three independent experiments.

MCF-7 BC cells = assay: Exosome secretion by N-Rh-PE (Figure 4B), MCF-7; type: cell-based, human; details: 100 ng/mL peptide, 24 h, no transfection, N-Rh-PE fluorescence, three independent experiments
Experimental: as §3

[1] = biological target: T1, Recombinant Human GRP75/HSPA9B/Mortalin His Protein (Homo sapiens, UniProt P38646); assay: biochemical; type: binding
T1 construct: His; purchased Novus Biologicals, LLC/R&D Systems NBC1-18380
Source text: (§4) We conducted SPR experiments to characterize and quantify the direct binding interactions between Nef and SMR peptides (the analytes) and the target proteins, Vimentin and Mortalin (the immobilized ligands). We did so by injecting the analytes at various concentrations over the chip surface with the immobilized ligands.
(§5) Recombinant Human Vimentin Protein, CF (catalog # 2105-VI-100), Recombinant Human GRP75/HSPA9B/Mortalin His Protein (catalog # NBC1-18380), and Recombinant Human HSPA8/HSC71/Hsc70 His Protein (Catalog # NBPI-30278) were purchased from Novus Biologicals, LLC/R&D Systems, Centennial, CO, USA. These proteins were used for SPR.
as §2

[2] = biological target: T2, Recombinant Human Vimentin Protein (Homo sapiens, UniProt P08670); assay: biochemical; type: binding
T2 construct: purchased Novus Biologicals, LLC/R&D Systems 2105-VI-100
Source text: as §4, §5, §2

T2 sequence (P08670 whole entry): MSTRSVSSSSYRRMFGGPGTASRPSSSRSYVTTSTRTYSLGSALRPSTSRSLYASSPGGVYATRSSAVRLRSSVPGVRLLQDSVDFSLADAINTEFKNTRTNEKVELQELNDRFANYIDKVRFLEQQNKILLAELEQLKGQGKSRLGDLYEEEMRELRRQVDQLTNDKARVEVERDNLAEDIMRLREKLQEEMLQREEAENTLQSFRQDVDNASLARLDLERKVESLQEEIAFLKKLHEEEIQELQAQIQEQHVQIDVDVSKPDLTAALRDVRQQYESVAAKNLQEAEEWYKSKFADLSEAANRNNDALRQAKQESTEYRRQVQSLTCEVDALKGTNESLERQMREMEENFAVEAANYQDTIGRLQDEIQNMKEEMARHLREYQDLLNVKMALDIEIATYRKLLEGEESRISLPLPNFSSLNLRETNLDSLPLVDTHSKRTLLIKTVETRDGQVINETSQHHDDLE
T1 sequence (P38646 47-679): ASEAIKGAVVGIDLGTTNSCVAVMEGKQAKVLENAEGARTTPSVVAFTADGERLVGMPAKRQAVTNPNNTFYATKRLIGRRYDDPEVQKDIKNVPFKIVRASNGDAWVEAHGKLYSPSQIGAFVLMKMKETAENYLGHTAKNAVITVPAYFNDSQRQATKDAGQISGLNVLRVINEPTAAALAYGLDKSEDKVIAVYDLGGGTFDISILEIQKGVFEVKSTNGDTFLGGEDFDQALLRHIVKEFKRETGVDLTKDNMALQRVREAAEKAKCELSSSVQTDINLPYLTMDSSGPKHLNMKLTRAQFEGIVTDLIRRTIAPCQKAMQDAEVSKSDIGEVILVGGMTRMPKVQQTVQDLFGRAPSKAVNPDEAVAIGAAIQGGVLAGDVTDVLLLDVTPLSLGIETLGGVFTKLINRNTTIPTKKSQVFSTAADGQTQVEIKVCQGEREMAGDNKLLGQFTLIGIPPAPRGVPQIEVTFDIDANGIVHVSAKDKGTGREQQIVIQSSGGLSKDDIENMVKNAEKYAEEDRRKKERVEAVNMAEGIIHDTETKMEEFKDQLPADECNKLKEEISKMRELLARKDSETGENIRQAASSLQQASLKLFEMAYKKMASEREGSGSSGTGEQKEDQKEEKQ

| Substance | Jurkat GFP (exNef secretion) (Jurkat T cells) | MDA-MB-231 N-Rh-PE (exosome secretion) (MDA-MB-231 cells) | further results |
| --- | --- | --- | --- |
| GSGSSGTGEQKEDQKEEKQ [#67, Mortalin scanning peptide 67] | 99.56% | 89.82% |  |
| GGLSKDDIENMVKNAEKYAE [#56] |  |  | Kd (Nef protein): 76.9 µM; kon (Nef protein): 370 M⁻¹ s⁻¹ |
| DTETKMEEFKDQLPADECNK [#60, Mortalin scanning peptide 60] | 98.25% | 72.32% |  |
| QOASLKLFEMAYKKMASERE [#65, Mortalin scanning peptide 65] | 96.34% | 81.65% |  |
| LKEEISKMRELLARKDSETG [#62] |  |  | Kd (Nef protein): 1.9 µM; kon (Nef protein): 1970 M⁻¹ s⁻¹ |
| LYEEEMRE [VIM-wt, Vimentin-wt peptide (LYEEEMRE)] |  |  | exosome release vs untreated, in words (MDA-MB-231 BC cells): significantly decreased exosome release; p, UT vs. peptide, exosome release (MDA-MB-231 BC cells): < 0.00005; exosome release vs untreated, in words (MCF-7 BC cells): significantly decreased exosome release; p, UT vs. peptide, exosome release (MCF-7 BC cells): < 0.00005 |
| AYKKMASEREGSGSSGTGEQ [#66, Mortalin scanning peptide 66] | 92.28% | 81.79% |  |
| EDRRKKERVEAVNMAEGIIH [#58, Mortalin scanning peptide 58] | 91.89% | 68.11% |  |
| ENIRQAASSLQOASLKLFEM [#64, Mortalin scanning peptide 64] | 95.37% | 73.49% |  |
| AVNMAEGIIHDTETKMEEFK [#59, Mortalin scanning peptide 59] | 95.49% | 67.81% |  |
| VGFPV [SMRwt, ^66Val-Gly-Phe-Pro-Val^70] |  |  | Kd [1]: 20.7 µM; kon ([1]; pH 7.4, read-out: ka (Mortalin)): 671 M⁻¹ s⁻¹; Kd [2]: 6.63 µM; kon ([2]; pH 7.4, read-out: ka (Vimentin)): 6410 M⁻¹ s⁻¹ |
| MVKNAEKYAEEDRRKKERVE [#57, Mortalin scanning peptide 57] | 96.69% | 79.73% |  |
| LLARKDSETGENIRQAASSL [#63, Mortalin scanning peptide 63] | 98.02% | 75.39% |  |
